Results from PMC8370248, “Key Metabolic Enzymes Involved in Remdesivir Activation in Human Lung Cells” (Antimicrobial Agents and Chemotherapy, 2021).
“And” between values parts separate entries of the source, which are not always exact repeats. Equal values may be shown once. Read-outs that look alike come from different tables or passages of the source.

Columns and labels:
CES2 = biological target: T1, CES2 (Homo sapiens, UniProt O00748); test: CES2-catalyzed hydrolysis of RDV and control (substrate disappearance, LC-MS); format: in vitro ADME; settings: for half-life at 1 μM: human, CES2 Supersomes (protein-enriched subcellular fraction)
T1 construct: purchased Corning Incorporated (Corning, NY); host or cells: baculovirus-infected insect cells (microsomal fraction, Supersomes)
T1 sequence (O00748 27-559): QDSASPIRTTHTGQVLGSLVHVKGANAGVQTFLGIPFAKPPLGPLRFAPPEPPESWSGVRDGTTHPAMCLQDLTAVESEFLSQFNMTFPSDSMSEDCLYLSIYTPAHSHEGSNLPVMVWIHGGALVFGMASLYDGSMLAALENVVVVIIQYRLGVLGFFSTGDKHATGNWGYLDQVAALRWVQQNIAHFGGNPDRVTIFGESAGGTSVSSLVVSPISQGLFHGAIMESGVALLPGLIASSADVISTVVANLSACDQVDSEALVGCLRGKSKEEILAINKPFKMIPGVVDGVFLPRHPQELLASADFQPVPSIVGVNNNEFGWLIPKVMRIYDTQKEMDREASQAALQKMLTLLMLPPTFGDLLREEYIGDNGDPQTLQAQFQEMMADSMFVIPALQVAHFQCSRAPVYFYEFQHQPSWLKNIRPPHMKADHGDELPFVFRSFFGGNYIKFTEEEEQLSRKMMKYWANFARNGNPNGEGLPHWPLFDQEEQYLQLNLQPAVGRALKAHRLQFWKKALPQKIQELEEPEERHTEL
Procedure: (§1) The catalytic activity of carboxylesterase 1b (CES1b), carboxylesterase 1c (CES1c), CES2, and CatA toward RDV hydrolysis was measured using protein-enriched subcellular fraction (CES isozymes) or recombinant proteins (CatA). The reaction rates were determined by monitoring the disappearance of RDV using a liquid chromatography-mass spectrometry (LC-MS) method.
(§2) RDV or positive-control substrates (oseltamivir for CES1 or procaine for CES2) were incubated with individual Supersome preparations (final CES concentration, 1.5 mg/ml) in 0.1 M potassium phosphate buffer (pH 7.4) at 37°C. Substrates were added to a final concentration of 1 μM to initiate the reaction. The final incubation volume was 250 μl. Aliquots were removed after incubation for 0, 10, 30, 60, and 120 min. The reactions were stopped by the addition of the quench solution containing the LC-MS internal standard (IS) (labetalol). Following protein precipitation and centrifugation, 150 μl of supernatant was dried down and reconstituted with 250 μl water. All samples were analyzed by an LC-MS, and the analyte/internal standard peak area ratio (PAR) values were used for quantification. Disappearance of RDV or positive-control compounds was monitored over the incubation time period. Three experiments were conducted with two replicates in each experiment, and data are reported as averages from the three experiments.
(§3) In all studies apart from those with CES1 and CatA with enzyme inhibitors, samples (10-μl aliquots) were injected with a Thermo Scientific autosampler. The LC instrumentation consisted of a Thermo Scientific Dionex UltiMate 3000 RS pump, and the LC column was a Waters Acquity UPLC BEH C18 (1.7 μm particle size, 2.1 by 50 mm). Mobile phases A and B were water 99.9% (vol/vol) containing 0.1% (vol/vol) formic acid, and acetonitrile 99.9% (vol/vol) containing 0.1% (vol/vol) formic acid, respectively, pumped at 0.2 ml/minute. Elution was achieved by a series of linear gradients over 2.33 min followed by reequilibration for 2.57 min. The MS instrument was a Thermo Q Exactive Hybrid Quadrupole-Orbitrap operating in positive or negative ionization mode as appropriate. This was calibrated on a weekly basis, and data were processed with GMSU 8.4.66 software by Gubbs Inc. (Alpharetta, GA). Mass tolerance of 5 ppm was used.

CES1b = biological target: T2, CES1b (Homo sapiens, UniProt P23141); test: CES1b-catalyzed hydrolysis of RDV and control (substrate disappearance, LC-MS); format: in vitro ADME
T2 construct: purchased Corning Incorporated (Corning, NY); host or cells: baculovirus-infected insect cells (microsomal fraction, Supersomes)
T2 sequence (P23141 18-567): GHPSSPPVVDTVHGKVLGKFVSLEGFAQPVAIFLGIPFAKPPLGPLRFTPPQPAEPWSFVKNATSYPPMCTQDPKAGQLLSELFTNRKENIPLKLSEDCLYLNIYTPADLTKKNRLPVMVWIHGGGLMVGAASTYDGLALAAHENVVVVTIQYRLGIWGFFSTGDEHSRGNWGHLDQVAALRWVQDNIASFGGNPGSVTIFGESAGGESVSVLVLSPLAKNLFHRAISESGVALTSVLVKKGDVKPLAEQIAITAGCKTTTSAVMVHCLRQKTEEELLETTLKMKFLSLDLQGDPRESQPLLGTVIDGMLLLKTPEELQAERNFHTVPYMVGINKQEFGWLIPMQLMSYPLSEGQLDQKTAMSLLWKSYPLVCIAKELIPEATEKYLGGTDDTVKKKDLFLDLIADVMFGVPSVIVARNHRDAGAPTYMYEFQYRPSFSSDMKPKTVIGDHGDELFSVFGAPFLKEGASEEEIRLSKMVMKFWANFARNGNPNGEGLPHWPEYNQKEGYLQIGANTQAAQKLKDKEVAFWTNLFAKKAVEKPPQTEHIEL
Procedure: as §1, §2, §3

SARS-CoV-2 = test: microbe, parasite or virus in culture; format: cell-based
CES1c = biological target: T3, CES1c (Homo sapiens, UniProt P23141); test: CES1c-catalyzed hydrolysis of RDV and control (substrate disappearance, LC-MS); format: in vitro ADME
T3 construct: purchased Corning Incorporated (Corning, NY); host or cells: baculovirus-infected insect cells (microsomal fraction, Supersomes)
T3 sequence (P23141 18-566 isoform P23141-3 limits assumed): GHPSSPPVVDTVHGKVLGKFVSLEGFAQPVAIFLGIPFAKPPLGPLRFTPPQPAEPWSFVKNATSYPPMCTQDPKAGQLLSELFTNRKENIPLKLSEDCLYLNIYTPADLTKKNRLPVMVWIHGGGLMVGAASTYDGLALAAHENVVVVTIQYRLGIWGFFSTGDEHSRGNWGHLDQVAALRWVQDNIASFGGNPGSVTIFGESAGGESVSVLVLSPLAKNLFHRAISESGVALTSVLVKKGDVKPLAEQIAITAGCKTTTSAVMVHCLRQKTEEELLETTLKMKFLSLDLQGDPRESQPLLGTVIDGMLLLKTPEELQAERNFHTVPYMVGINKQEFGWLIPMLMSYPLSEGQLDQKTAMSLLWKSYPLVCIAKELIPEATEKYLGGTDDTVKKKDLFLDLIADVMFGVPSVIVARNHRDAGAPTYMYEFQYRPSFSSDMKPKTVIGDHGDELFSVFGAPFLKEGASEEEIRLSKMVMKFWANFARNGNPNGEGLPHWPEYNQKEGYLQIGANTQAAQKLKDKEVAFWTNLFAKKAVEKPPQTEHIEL
Procedure: as §1, §2, §3

[1] = times faster than positive control oseltamivir

Structure (SMILES): CCC(CC)COC(=O)[C@H](C)N[P@](=O)(OC[C@H]1O[C@@](C#N)(c2ccc3c(N)ncnn23)[C@H](O)[C@@H]1O)Oc1ccccc1 [RDV, Remdesivir]
- Activity for amidate ester cleavage, CES2 (CES2; 1 μM substrate, CES 1.5 mg/ml, pH 7.4, 37°C): 2.8 ± 2.6 × 10^−4 nmol/min/mg
- half-life at 1 μM (CES2; pH 7.4, 1 μM substrate, CES 1.5 mg/ml, pH 7.4, 37°C, read-out: t1/2, CES2 (converted)): > 1000 min
- half-life at 1 μM (CES2; pH 7.4, as stated in text, read-out: half-life, CES2): > 960 min
- half-life at 1 μM (CES1b; human, CES1b Supersomes (protein-enriched subcellular fraction), 1 μM substrate, CES 1.5 mg/ml, pH 7.4, 37°C, read-out: t1/2, CES1b (converted)): 9.7 min
- CES1b hydrolysis rate relative to oseltamivir (CES1b; [1]): 2 times
- Fold-RDV EC50, RDV + 0.5 μM telaprevir (SARS-CoV-2; EC50 of combination divided by EC50 of RDV (plus DMSO), 0.5 μM telaprevir): 1.70 ± 0.19
- Fold-RDV EC50, RDV + 2.5 μM telaprevir (SARS-CoV-2; EC50 of combination divided by EC50 of RDV (plus DMSO), 2.5 μM telaprevir): 2.27 ± 0.25
- Fold-RDV EC50, RDV + 10 μM telaprevir (SARS-CoV-2; EC50 of combination divided by EC50 of RDV (plus DMSO), 10 μM telaprevir): 2.9 and 2.91 ± 0.65
- EC50 (SARS-CoV-2; Severe acute respiratory syndrome coronavirus 2, 48 h, compound alone (plus DMSO), A549-hACE2 cells, 48 h): ~99 nM
- half-life at 1 μM (CES1c; human, CES1c Supersomes (protein-enriched subcellular fraction), 1 μM substrate, CES 1.5 mg/ml, pH 7.4, 37°C, read-out: t1/2, CES1c (converted)): 7.7 min
- CES1c hydrolysis rate relative to oseltamivir (CES1c; [1]): 4 times
